These results are taken from patent publication EP0637247B1, “TREATMENT OF HERPESVIRUS INFECTION” (priority 1992, dated 1993).

The test system of one experiment is HSV-1 F. The class given is cell-based. Particulars: plaque reduction, HSV-1 F on Vero cell monolayers, peptide pretreatment 25 hours, replication 2 to 3 days. The procedure:
Selected compounds were first formulated as 10 mM stocks in water for in vitro and cell culture procedures. The stocks are then diluted into buffers used for specific assays, or into cell culture media. For animal studies peptides are diluted into phosphate buffer saline.
Results of the plaque reduction assay performed with various peptides, expressed in terms of IC50 are tabulated below: […]

For a further experiment, the system named is HSV-1 strain F. Particulars: mice, foot-pad injections in PBS, one week pretreatment then three times weekly; particularly at the doses of 5 and 50µg/mouse. How it is done: After pretreatment, the left footpad was inflamed by injecting about 5 µL of 1M NaCl. After about 6 hours, the same footpad was abraded and a drop of HSV-1 strain F (2 x 10^3 pfu/ml) was then added deposited on the inflamed footpad.

Where two headings read alike, the source gives them in different places. Where a SMILES comes first, the peptide text is derived from it. [ ]: non-standard residue; d: D form.

`CC[C@H](C)[C@H](NC(=O)[C@H](C)NC(=O)[C@@H](NC(=O)[C@H](Cc1ccccc1)NC(C)=O)[C@@H](C)CC)C(=O)N[C@@H](C)C(=O)N[C@H](CCCNC(=N)N)C(=O)N[C@H](CCCCN)C(=O)N[C@H](CCCCN)C(=O)N[C@H](CCCNC(=N)N)C(=O)N[C@H](CCCNC(=N)N)C(=O)N[C@H](CCC(N)=O)C(=O)N[C@H](CCCNC(=N)N)C(=O)N[C@H](CCCNC(=N)N)C(N)=O` (Ac-FIAIA[dR][dK][dK][dR][dR][dQ][dR][dR]-NH2): in the experiment with HSV-1 F (read-out: IC50), the IC50 came to 10 µM.
As to `CC(=O)N[C@H](CCCNC(=N)N)C(=O)N[C@H](CCCCN)C(=O)N[C@H](CCCCN)C(=O)N[C@H](CCCNC(=N)N)C(=O)N[C@H](CCCNC(=N)N)C(=O)N[C@H](CCC(N)=O)C(=O)N[C@H](CCCNC(=N)N)C(=O)N[C@H](CCCNC(=N)N)C(N)=O` (Ac-[dR][dK][dK][dR][dR][dQ][dR][dR]-NH2), the IC50 with HSV-1 F (read-out: IC50) is over 20 µM.
Turning to `CC(=O)N[C@H](CCCNC(=N)N)C(=O)N[C@H](CCCNC(=N)N)C(=O)N[C@H](CCCNC(=N)N)C(=O)N[C@H](CCCNC(=N)N)C(=O)N[C@H](CCCNC(=N)N)C(=O)N[C@H](CCCNC(=N)N)C(=O)N[C@H](CCCNC(=N)N)C(N)=O` [acetyl-[D-Arg]7-NH2, acetyl-[D-(Arg)7]-NH2], the IC50 entry with HSV-1 F was “slight”.
On to `CC(=O)N[C@H](CCCNC(=N)N)C(=O)N[C@H](CCCNC(=N)N)C(=O)N[C@H](CCCNC(=N)N)C(=O)N[C@H](CCCNC(=N)N)C(=O)N[C@H](CCCNC(=N)N)C(=O)N[C@H](CCCNC(=N)N)C(=O)N[C@H](CCCNC(=N)N)C(=O)N[C@H](CCCNC(=N)N)C(=O)N[C@H](CCCNC(=N)N)C(N)=O` [acetyl-[D-Arg]9-NH2], for which the “anti-herpetic effect in vivo (Figure 3)” value with HSV-1 strain F is “anti-herpetic result”.
